The record followed here is ChEMBL document CHEMBL5696442, “Discovery of type II inhibitors of TGFβ-activated kinase 1 (TAK1) and mitogen-activated protein kinase kinase kinase kinase 2 (MAP4K2)” (J Med Chem, 2015).

Format in all cases: cell-based
Assay [1] has as its target Serine/threonine-protein kinase ATR (Homo sapiens) (UniProt Q13535). Kind of assay: Inhibition of ATR ATP labeling site in human A-375 cells at 0.05 uM by KiNativ Profiling analysis relative to control.
Assay [2] has as its target Cyclin-dependent kinase 8 (Homo sapiens) (UniProt P49336). Kind of assay: Inhibition of CDK8 Lys2 labeling site in human A-375 cells at 0.05 uM by KiNativ Profiling analysis relative to control.
Assay [3] deals with T1, Serine/threonine-protein kinase TAO3 (Homo sapiens) (UniProt Q9H2K8).
T1 sequence (whole entry): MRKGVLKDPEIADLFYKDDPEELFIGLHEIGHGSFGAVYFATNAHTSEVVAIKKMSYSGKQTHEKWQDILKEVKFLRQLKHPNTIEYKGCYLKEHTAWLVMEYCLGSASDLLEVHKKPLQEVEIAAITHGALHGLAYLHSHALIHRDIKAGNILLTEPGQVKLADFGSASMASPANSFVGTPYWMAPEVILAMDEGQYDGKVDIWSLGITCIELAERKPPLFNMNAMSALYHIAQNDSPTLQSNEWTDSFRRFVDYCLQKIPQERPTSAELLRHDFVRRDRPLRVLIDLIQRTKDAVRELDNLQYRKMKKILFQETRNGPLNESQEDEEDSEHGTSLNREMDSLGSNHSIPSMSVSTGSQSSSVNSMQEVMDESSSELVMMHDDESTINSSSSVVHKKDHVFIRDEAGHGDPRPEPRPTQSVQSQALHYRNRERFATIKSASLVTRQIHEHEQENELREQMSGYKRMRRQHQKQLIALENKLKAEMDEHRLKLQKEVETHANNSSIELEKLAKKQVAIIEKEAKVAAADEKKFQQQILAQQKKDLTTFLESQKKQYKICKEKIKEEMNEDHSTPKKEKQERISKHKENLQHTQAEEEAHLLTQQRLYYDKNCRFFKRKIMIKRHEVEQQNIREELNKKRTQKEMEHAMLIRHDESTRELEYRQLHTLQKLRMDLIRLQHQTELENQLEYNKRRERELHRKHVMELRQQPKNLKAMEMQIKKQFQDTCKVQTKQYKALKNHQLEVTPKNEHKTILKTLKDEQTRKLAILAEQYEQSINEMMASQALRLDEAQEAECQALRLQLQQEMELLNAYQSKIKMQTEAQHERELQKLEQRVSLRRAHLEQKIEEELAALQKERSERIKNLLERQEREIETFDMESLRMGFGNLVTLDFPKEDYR
Description: Inhibition of TAO3 Lys2 labeling site in human A-375 cells at 0.5 uM by KiNativ Profiling analysis relative to control.

Assay [4] deals with Focal adhesion kinase 1 (Homo sapiens) (UniProt Q05397). Description: Inhibition of FAK Lys1 labeling site in human A-375 cells at 0.05 uM by KiNativ Profiling analysis relative to control.
Focal adhesion kinase 1 (Homo sapiens), sequence (Q05397 2-1052 limits assumed): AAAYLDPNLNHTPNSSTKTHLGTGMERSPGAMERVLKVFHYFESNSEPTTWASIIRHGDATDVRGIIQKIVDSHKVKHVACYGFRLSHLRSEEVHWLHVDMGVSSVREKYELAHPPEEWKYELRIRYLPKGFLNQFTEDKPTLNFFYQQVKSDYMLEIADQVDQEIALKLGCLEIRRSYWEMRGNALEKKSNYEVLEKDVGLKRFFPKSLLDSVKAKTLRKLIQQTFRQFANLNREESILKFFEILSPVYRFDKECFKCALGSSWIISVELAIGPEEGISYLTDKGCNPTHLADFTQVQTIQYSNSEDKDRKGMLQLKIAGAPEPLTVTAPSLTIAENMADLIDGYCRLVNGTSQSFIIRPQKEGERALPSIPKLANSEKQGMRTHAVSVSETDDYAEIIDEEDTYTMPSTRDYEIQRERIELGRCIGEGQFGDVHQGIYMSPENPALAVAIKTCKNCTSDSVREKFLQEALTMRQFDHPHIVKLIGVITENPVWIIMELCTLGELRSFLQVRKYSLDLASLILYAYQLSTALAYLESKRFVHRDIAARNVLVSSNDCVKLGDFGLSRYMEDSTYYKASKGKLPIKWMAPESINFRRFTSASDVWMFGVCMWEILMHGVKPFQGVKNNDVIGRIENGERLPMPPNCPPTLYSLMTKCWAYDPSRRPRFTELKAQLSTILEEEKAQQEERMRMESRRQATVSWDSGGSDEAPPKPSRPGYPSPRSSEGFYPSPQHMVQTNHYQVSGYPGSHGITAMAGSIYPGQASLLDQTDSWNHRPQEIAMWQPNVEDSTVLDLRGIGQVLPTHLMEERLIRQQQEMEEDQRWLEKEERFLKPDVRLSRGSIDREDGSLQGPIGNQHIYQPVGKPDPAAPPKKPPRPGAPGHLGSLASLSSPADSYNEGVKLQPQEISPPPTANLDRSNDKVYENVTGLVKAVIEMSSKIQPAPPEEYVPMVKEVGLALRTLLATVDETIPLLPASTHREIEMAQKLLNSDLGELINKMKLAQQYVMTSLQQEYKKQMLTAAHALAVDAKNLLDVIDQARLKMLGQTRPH
In assay [5] the target is T2, Scaffold protein ILK (Homo sapiens) (UniProt Q13418).
T2 sequence (whole entry): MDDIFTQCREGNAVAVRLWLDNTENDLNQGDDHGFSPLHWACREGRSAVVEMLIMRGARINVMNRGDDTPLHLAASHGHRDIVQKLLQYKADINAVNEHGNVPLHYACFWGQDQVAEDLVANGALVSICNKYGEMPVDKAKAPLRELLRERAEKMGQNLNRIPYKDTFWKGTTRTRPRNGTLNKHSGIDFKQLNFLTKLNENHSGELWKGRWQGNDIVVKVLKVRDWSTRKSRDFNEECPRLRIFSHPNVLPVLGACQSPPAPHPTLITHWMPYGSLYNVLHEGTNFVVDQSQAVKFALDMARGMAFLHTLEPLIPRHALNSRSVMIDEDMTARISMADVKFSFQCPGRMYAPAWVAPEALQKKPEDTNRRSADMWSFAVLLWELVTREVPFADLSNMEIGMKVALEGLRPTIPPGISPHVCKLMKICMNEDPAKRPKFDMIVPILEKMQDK
Kind of assay: Inhibition of ILK Lys1 labeling site in human A-375 cells at 5 uM by KiNativ Profiling analysis relative to control.

For assay [6], the target named is T3, Serine/threonine-protein kinase Nek9 (Homo sapiens) (UniProt Q8TD19).
T3 sequence (whole entry): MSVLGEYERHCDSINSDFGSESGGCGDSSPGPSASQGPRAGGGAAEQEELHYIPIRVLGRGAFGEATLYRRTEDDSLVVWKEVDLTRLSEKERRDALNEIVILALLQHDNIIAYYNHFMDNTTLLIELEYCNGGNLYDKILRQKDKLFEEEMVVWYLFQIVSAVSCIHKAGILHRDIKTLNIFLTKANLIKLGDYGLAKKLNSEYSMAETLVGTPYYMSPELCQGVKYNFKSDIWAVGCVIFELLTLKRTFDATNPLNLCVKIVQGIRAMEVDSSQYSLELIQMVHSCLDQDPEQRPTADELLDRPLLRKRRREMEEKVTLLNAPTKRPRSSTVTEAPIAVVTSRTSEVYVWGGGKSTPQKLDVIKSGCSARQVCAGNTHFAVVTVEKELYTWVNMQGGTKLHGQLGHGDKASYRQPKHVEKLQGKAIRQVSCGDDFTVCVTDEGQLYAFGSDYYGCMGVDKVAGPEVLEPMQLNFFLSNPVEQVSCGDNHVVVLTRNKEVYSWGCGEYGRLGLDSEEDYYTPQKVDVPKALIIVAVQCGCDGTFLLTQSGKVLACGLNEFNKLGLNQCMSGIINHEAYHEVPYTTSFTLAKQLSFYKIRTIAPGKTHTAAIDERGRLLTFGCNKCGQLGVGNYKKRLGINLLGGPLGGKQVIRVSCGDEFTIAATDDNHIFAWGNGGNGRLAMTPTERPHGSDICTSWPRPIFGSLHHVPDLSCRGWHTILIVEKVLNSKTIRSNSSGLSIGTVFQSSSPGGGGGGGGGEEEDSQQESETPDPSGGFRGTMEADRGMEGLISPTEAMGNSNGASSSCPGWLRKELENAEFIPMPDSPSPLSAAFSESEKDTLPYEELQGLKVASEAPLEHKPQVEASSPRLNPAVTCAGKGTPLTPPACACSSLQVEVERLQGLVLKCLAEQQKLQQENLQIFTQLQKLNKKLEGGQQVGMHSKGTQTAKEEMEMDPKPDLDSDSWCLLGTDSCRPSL
Kind of assay: Inhibition of NEK9 ACT labeling site in human A-375 cells at 0.5 uM by KiNativ Profiling analysis relative to control.

Cyclin-dependent kinase 8 (Homo sapiens), sequence (P49336 whole entry): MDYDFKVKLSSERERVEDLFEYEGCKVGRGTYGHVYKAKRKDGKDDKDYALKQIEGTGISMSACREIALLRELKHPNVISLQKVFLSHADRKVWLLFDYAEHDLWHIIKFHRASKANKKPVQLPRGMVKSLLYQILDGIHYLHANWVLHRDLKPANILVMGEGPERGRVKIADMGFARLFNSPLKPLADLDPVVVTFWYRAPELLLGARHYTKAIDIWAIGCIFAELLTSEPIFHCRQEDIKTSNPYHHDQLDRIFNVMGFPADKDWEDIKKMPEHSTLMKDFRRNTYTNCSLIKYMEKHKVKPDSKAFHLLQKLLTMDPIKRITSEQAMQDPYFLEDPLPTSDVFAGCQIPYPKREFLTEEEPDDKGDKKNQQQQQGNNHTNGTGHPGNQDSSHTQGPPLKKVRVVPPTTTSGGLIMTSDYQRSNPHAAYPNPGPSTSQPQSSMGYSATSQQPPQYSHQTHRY
Serine/threonine-protein kinase ATR (Homo sapiens), sequence (Q13535 whole entry, looked up): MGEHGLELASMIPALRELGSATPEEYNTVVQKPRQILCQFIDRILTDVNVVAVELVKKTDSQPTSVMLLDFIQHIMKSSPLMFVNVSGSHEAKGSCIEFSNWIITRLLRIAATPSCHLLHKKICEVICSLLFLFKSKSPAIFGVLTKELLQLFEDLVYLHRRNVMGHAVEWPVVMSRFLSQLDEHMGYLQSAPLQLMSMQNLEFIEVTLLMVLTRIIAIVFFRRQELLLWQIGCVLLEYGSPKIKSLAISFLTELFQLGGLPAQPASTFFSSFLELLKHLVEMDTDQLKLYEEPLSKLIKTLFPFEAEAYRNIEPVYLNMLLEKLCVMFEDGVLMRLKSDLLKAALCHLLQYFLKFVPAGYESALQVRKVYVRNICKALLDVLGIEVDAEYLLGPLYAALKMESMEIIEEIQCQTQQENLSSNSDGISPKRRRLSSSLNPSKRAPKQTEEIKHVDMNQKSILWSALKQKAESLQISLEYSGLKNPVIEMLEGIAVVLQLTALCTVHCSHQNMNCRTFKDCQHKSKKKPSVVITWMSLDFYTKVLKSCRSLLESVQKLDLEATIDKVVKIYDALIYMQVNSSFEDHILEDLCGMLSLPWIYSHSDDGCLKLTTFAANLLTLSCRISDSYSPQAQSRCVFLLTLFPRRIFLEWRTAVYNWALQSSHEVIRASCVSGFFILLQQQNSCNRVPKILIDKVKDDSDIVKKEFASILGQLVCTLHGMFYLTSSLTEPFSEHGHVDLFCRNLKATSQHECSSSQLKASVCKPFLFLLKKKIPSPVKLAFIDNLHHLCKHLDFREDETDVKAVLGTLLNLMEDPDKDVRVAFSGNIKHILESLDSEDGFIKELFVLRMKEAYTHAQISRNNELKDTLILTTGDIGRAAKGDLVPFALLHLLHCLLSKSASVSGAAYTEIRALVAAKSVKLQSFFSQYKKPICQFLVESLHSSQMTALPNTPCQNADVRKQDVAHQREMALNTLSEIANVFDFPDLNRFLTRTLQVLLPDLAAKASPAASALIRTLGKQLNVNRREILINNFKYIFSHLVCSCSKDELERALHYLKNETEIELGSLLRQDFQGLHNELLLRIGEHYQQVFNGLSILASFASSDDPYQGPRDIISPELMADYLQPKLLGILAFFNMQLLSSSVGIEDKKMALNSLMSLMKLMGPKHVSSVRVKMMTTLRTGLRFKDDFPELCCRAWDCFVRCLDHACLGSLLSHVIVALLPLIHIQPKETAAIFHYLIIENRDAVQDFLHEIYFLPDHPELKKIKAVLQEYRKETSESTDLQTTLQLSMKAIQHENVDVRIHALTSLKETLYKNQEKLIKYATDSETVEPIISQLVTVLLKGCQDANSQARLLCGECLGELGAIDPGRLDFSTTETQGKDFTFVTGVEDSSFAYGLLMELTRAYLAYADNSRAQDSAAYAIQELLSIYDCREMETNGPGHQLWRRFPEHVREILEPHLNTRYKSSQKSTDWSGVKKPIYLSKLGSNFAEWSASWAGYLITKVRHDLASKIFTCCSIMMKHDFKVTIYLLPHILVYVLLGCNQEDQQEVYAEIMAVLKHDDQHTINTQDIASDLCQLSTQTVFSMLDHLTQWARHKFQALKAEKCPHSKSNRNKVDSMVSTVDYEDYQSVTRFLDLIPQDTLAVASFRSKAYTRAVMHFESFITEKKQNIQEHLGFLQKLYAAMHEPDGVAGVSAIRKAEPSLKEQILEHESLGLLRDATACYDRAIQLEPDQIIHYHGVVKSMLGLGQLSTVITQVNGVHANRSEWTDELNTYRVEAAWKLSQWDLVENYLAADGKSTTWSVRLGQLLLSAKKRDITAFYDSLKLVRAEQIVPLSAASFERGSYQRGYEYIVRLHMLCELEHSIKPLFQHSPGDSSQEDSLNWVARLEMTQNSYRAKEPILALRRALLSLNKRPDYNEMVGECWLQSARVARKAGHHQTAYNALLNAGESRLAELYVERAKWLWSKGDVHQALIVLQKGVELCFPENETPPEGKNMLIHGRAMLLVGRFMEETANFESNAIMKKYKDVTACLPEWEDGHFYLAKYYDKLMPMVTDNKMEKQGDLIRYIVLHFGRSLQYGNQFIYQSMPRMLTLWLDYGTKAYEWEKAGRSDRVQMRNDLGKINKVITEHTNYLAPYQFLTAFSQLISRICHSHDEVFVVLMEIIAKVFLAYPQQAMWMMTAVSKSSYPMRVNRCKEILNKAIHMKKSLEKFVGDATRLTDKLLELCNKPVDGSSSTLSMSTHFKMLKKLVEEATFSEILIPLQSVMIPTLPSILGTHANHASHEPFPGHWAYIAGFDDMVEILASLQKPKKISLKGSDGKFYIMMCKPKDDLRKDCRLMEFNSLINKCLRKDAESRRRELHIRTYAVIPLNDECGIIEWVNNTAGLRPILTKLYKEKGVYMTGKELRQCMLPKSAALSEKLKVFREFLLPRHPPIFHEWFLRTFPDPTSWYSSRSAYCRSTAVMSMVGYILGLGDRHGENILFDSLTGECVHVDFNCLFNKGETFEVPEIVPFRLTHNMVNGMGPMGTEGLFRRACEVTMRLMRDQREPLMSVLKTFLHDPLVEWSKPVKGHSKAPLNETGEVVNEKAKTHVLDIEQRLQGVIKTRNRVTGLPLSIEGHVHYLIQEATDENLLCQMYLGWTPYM

One may read the inhibition as the change of the read-out against control, counted positive when it falls. Turning to `CCN1CCN(Cc2ccc(NC(=O)c3ccc(C)c(/C=C/c4cnc5[nH]ccc5c4OC)c3)cc2C(F)(F)F)CC1`, the inhibition in assay [1] was -7.3%; in assay [2], -9.4%; in assay [3], 6.6%; in assay [4], 4.7%; in assay [5], -8.7%; in assay [6] it was -3.8%.

`CCN1CCN(Cc2ccc(NC(=O)c3ccc(C)c(Oc4ccnc5[nH]ccc45)c3)cc2C(F)(F)F)CC1`: the inhibition in assay [1] was 7.9%; in assay [2] it was 32.1%; in assay [3] it was -5.6%; in assay [4] it was 1%; in assay [5] it was -9.9%; in assay [6], -2.4%.
